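Dose response: 5 concentrations. Exposure: 48 h. Format: 96-well plates. Endpoint: linear interpolation; highest concentration if not reached. GI50 = concentration required for 50% inhibition of growth.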 Activity calls are given as the source filed them. Cut-off read from the data, not from the text of the source: active = GI50 up to about 1.1 µM and inactive = higher.

Test systems include SK-MEL-28; HT-29; NCI-H23; ACHN; RPMI-8226; NCI-H522; UACC-257; UACC-62; DMS-273; A549; OVCAR-8; HOP-62; M14; SNB-75; COLO 205; HOP-92; LOX IMVI.
What all share (test): NCI tumour cell line growth inhibition, 48 h

For the compound `O=C1C(=Cc2ccc(F)cc2)C(=O)c2ccccc21`, the GI50 in the assay on SK-MEL-28 was > 100 µM (inactive); with HT-29 it was > 100 µM (inactive); in the assay on NCI-H23, > 100 µM (inactive); in the assay on ACHN it was > 100 µM (inactive); with RPMI-8226, 49.8 µM (inactive); in the assay on NCI-H522, > 100 µM (inactive). The GI50 with UACC-257, in the assay with UACC-62, with DMS-273, with A549, in the assay with OVCAR-8 and with HOP-62 was > 100 µM (inactive) throughout. For the same compound, the GI50 was > 100 µM (inactive) in the assay with M14, 24.9 µM (inactive) in the assay on SNB-75, > 100 µM (inactive) in the assay with COLO 205 and 0.925 µM (active) in the assay with HOP-92.

Turning to `CCCCCCCCCCCCCCCC(=O)NCC(COP(=O)([O-])OCC[N+](C)(C)C)OCC` (stereo unspecified), the GI50 in the assay on SK-MEL-28 is 21 µM (inactive); in the assay with HT-29 it was 5.22 µM (inactive); in the assay with NCI-H23 it was 18.8 µM (inactive); in the assay with ACHN it was 15 µM (inactive); in the assay with LOX IMVI it was 16.3 µM (inactive); with RPMI-8226 it was 2.9 µM (inactive). For the same compound, the GI50 in the assay with UACC-257 was 15.7 µM (inactive); with UACC-62, 9.35 µM (inactive); in the assay on DMS-273, 2.36 µM (inactive); in the assay on A549, 21 µM (inactive); in the assay on OVCAR-8, 4.42 µM (inactive); with HOP-62, 7.35 µM (inactive). Moreover, the GI50 in the assay on M14 was 11.5 µM (inactive); in the assay with SNB-75 it was 11 µM (inactive); in the assay on COLO 205, 2.31 µM (inactive); in the assay on HOP-92, 3.52 µM (inactive).

Regarding `OC12CCC3(OC4CCCCO4)c4ccccc4C3C1c1ccccc12` (stereo unspecified), the GI50 with SK-MEL-28 was 76 µM (inactive); in the assay on HT-29, 43.9 µM (inactive); with NCI-H23, 90.2 µM (inactive); in the assay on ACHN, 41.7 µM (inactive); in the assay with LOX IMVI, 38.8 µM (inactive); in the assay with RPMI-8226 it was 36 µM (inactive). Further, the GI50 was 37.6 µM (inactive) in the assay on NCI-H522; 91.2 µM (inactive) with UACC-257; 56.8 µM (inactive) with UACC-62; 61.7 µM (inactive) in the assay with DMS-273; 85.1 µM (inactive) in the assay with A549; 74.3 µM (inactive) in the assay with OVCAR-8. Further, the GI50 was > 100 µM (inactive) in the assay on HOP-62, 67.6 µM (inactive) with M14, > 100 µM (inactive) in the assay on SNB-75 and 55.1 µM (inactive) with COLO 205.

`COc1ccc(NC(=O)CC(=O)N/N=C(\C)c2cc3ccccc3oc2=O)cc1`: the GI50 in the assay on SK-MEL-28, in the assay on HT-29, with NCI-H23, in the assay on ACHN, in the assay on LOX IMVI and with RPMI-8226 was > 100 µM (inactive) throughout. For the same compound, the GI50 in the assay with NCI-H522 was > 100 µM (inactive); in the assay with UACC-257, 89.9 µM (inactive); in the assay on UACC-62, > 100 µM (inactive); in the assay with DMS-273, > 100 µM (inactive); in the assay on A549, > 100 µM (inactive); in the assay on OVCAR-8 it was > 100 µM (inactive). Moreover, the GI50 in the assay on HOP-62, in the assay with M14, with SNB-75 and in the assay on COLO 205 was > 100 µM (inactive) each time.

Consider `CN(C)/N=N/c1cccc(C(N)=O)c1`, for which the GI50 in the assay on SK-MEL-28, with HT-29, with NCI-H23, in the assay with ACHN, in the assay on RPMI-8226 and with DMS-273 was > 100 µM (inactive) throughout. The GI50 in the assay on A549 was > 100 µM (inactive); in the assay with OVCAR-8, > 100 µM (inactive); in the assay with M14, > 100 µM (inactive); with SNB-75 it was 69.3 µM (inactive); in the assay with COLO 205 it was > 100 µM (inactive); with HOP-92 it was > 100 µM (inactive).

As for `CC1=NN(C(=O)Nc2ccccc2)C(=O)C2CCC(=O)N12` (stereo unspecified), the GI50 in the assay with SK-MEL-28, in the assay with NCI-H23, with ACHN, in the assay on LOX IMVI, with RPMI-8226 and with UACC-257 was > 100 µM (inactive) each time. In addition, the GI50 in the assay with UACC-62, in the assay with DMS-273, with A549, with OVCAR-8, in the assay with HOP-62 and with M14 was > 100 µM (inactive) each time. Also, the figures for the GI50 in the assay on SNB-75, with COLO 205 and in the assay on HOP-92 were 84.3 µM (inactive), > 100 µM (inactive) and > 100 µM (inactive), respectively.

`O=C(O)CSc1nnc(-c2ccccc2O)[nH]1`: the GI50 with SK-MEL-28, in the assay with HT-29, with NCI-H23, in the assay with ACHN, in the assay on LOX IMVI and in the assay on RPMI-8226 was > 100 µM (inactive) throughout. The GI50 in the assay on UACC-257, in the assay with UACC-62, with DMS-273, in the assay on A549, with OVCAR-8 and in the assay on M14 was > 100 µM (inactive) each time. The GI50 with SNB-75 and in the assay with HOP-92 was > 100 µM (inactive) each time.

For the compound `Cc1nc2sccn2c1C(=O)NN`, the GI50 in the assay with SK-MEL-28, in the assay on HT-29, in the assay with NCI-H23, in the assay with ACHN, with LOX IMVI and in the assay on RPMI-8226 was > 100 µM (inactive) throughout. In addition, the GI50 in the assay on NCI-H522, in the assay with UACC-257, in the assay with UACC-62, in the assay with DMS-273, in the assay on A549 and in the assay on OVCAR-8 was > 100 µM (inactive) throughout. Further, the GI50 with HOP-62, in the assay on COLO 205 and in the assay with HOP-92 was > 100 µM (inactive) in each case.

Take `O=c1c2ccccc2nc(-c2ccccc2Cl)n1NC1OC(CO)C(O)C(O)C1O` (stereo unspecified): the GI50 in the assay with SK-MEL-28, in the assay on HT-29, with NCI-H23, in the assay on ACHN, in the assay with RPMI-8226 and in the assay on NCI-H522 was > 100 µM (inactive) in each case. Further, the GI50 with UACC-257, in the assay on UACC-62, with DMS-273, with A549, with OVCAR-8 and in the assay on HOP-62 was > 100 µM (inactive) each time. The GI50 in the assay with M14 was > 100 µM (inactive); in the assay with SNB-75, 97.9 µM (inactive); in the assay with COLO 205, > 100 µM (inactive); in the assay on HOP-92 it was > 100 µM (inactive).
